Literature values, collected in US20240173373A1, “NOVEL METHOD FOR THE PRODUCTION OF CONCENTRATED ALOE VERA COMPOSITIONS AND THERAPEUTIC USES FOR THE SAME” (Desert Harvest, Inc., priority 2021, published 2024).

System: scald hyperalgesia
Details: compared with phenylbutazone

Substance: O-acetylated-D-mannan [O-acetylated-D-mannan (T-2-HN)]
- inhibitory effect on scald hyperalgesia: more marked inhibitory effect on scald hyperalgesia than phenylbutazone
